Positions of bridges follow the written chain, without caps; N, C: chain ends. Residues, ends and D or L forms follow the SMILES beside them.
Tests used:
[1] = system: tumor; details: mouse models; cited from earlier work
[2] = system: U937 cells; assay: Uptake of liposome-encapsulated rhodamine B by U937 cells; assay type: cell-based
Description: In another series of experiments the water-soluble fluorescent marker rhodamine B was encapsulated into liposomes and its uptake by cells was measured. Samples for rhodamine B uptake were prepared by mixing 60 μl of POPC/POPE (80/20, mol/mol, one mM) liposomes containing 10 μM rhodamine B to 300 μl of DMEM medium supplemented with 10% fetal bovine serum, Glutamax I, penicillin 100 U/ml and streptomycin 0.1 mg/ml. Peptides were then added to obtain a final concentration of […]. Ten μl (10^5 cells) of medium containing the indicated cells were combined with the LUVs. After an incubation for 15 min at 37° C. or +4° C. liposomes not bound to the cells were removed from 96-well plates by rinsing three times with cold PBS. The +4° C. temperature served as a control for non-endocytotic liposome uptake by cells (Oess and Hildt, 2000). The relative amount of rhodamine B associated with the cells was determined using microplate reader with excitation at 535 nm and emission at 595 nm.
We also preincubated cells with phorbol ester (TPA) (50 nM). Preincubation times varied from 15 to 75 min. Treatment of cells by phorbol ester (TPA) increases both expression and secretion of MMP-9 (Toth et al., 1997). Results are presented as RFI=I/I0, where RFI is relative fluorescence intensity, I0 is the emission intensity for the control, 2 μM rhodamine B in LUVs without the peptides, and I is the rhodamine emission for the peptide-liposome complexes taken up by the cells. […] M-17 inhibits the binding of MMP-9 to the substrate and this inhibition is expected to be concentration dependent. It is not known if rabbit polyclonal antibody blocks human MMP-2 (Murphy et al., 1994). Final concentrations of the indicated peptide, […] were 85 μM, 0.2 mM, 20 μg/ml, and 0.4 μM, respectively.
Cell cultures and fluorescence microscopy. U937 (ECACC 85011440), HT 1080 (ECACC 85111505), and CHO (ECACC 85050302) cells were cultured in RPMI or DMEM medium supplemented with 10% fetal bovine serum, Glutamax I, penicillin (100 U/ml), and streptomycin (0.1 mg/ml). Uptake of rhodamine B containing liposomes by the cultured cells was verified by fluorescence microscopy. An inverted fluorescence microscope (Zeiss IM 35) equipped with Nikon extra long working distance objectives (20×) and (40×) were used. Samples were prepared as described for the rhodamine uptake assay, with slight modifications. Accordingly, instead of washing, U937, HT 1080, and CHO cells with the rhodamine-containing liposomes and in cell culture medium were transferred into Nunclon 48 plate wells. Excitation and emission wavelengths were selected by suitable bandpass filters (Melles-Griot) transmitting in the range 535 nm and >600 nm, respectively. Fluorescence images were viewed with a Peltier-cooled digital camera (C4742-95, Hamamatsu, Japan) connected to a computer and operated by software (Hipic 5.0) provided by the instrument manufacturer.

[3] = system: MMP-2 and MMP-9; details: cited from earlier work
[4] = Penetration of peptides into lipid monolayers (surface pressure); assay type: physicochemical; details: eggPC monolayer, peptide 200 μM
Description: Interaction of peptides with lipid monolayers. Penetration of peptides into mono-molecular lipid films was measured using magnetically stirred circular wells (subphase volume 400 μl). Surface pressure (π) was monitored with a Wilhelmy wire attached to a microbalance (μ TroughS, Kibron Inc., Helsinki, Finland) connected to a Pentium PC. Lipids were spread on the air-buffer (PBS, pH 7) interface in chloroform (approx. one mg/ml) to different initial surface pressures (π0) and were allowed to equilibrate for 15 min before the addition of the indicated peptides (4 μ1,10 mg/ml in H2O and CWL in DMSO) into the subphase. The increment in π from the initial surface pressures (π0) after the addition of peptide was complete in approximately 20 min and the difference between π0 and the value observed after binding of the peptide into the film was taken as Δπ. All measurements were performed at ambient temperature (˜+24° C.). The data are represented as Δπ vs. […] (Brockman, 1999).

[5] = Trp fluorescence I350/I330 ratio; assay type: physicochemical
Description: Fluorescence spectroscopy. The environments of the tryptophan residues of CTT, STT, CLP, and CWL in liposomes were studied by fluorescence spectroscopy. The center of Trp fluorescence peak is at ˜350 nm when in water, whereas in a hydrophobic environment the emission is centered near 330 nm. Accordingly, changes in the microenvironment of Trp can be monitored by measuring I350/I330, the ratio of the emission at 350 nm to that at 330 nm (Lakowicz, 1999). Tryptophan fluorescence was recorded with a Perkin Elmer LS 50 B spectrofluorometer equipped with a magnetically stirred and thermostated cuvette compartment. […] Excitation and emission bandpasses were 10 nm and 10 nm, respectively. Excitation wavelength was 295 nm, and emission spectra were recorded in the range 300 to 400 nm. […]

[6] = Assay for lipid mixing (liposome fusion, NBD-PE/DPPRho); assay type: physicochemical; details: within 15 min
Description: The extent of exposure of Trp to the aqueous phase was studied using I— as a collisional quencher (Lakowicz, 1999). The extent of quenching was calculated by using the equation: F0/F=1+k[Q]=1+kqτ0[Q] where F0 and F are Trp fluorescence intensities at 345 nm in the absence and presence of the quencher, Q, τ0 is Trp fluorescence lifetime in the absence of the quencher, k is the Stern-Volmer constant (obtained from the slope of the linear fit of the data). Fluorescence of Trp in CTT (5 μM) and its quenching were measured in the absence and presence of POPC/POPE (80:20, mol/mol) LUVs (final lipid concentration of 0.5 mM). The results were corrected for background caused by PBS and liposomes. Assay for lipid mixing. The ability of the CTT, CLP, STT, and CWL peptides to induce liposome fusion was assessed by measuring lipid mixing, as described earlier (Struck et al., 1981). In brief, NBD-PE (X=0.01) and DPPRho (X=0.01) were incorporated into liposomes (POPC/POPE, 78/20, mol/mol). Due to the spectral overlap of NBD-PE (donor) emission and DPPRho (acceptor) absorption resonance energy transfer between these dyes is highly efficient. As liposomes containing NBD-PE and DPPRho are mixed with non-labeled liposomes, fusion is observed as an increase in the emission intensity of NBD-PE due to the dilution of probes. Excitation and emission wavelengths for NBD-PE at 430 nm and 530 nm were used. All fluorescence measurements were done at 37° C.

With `CC(C)C[C@@H]1NC(=O)[C@H]([C@@H](C)O)NC(=O)[C@H](Cc2ccccc2)NC(=O)CNC(=O)[C@H](Cc2c[nH]c3ccccc23)NC(=O)[C@H](Cc2c[nH]cn2)NC(=O)[C@H]([C@@H](C)O)NC(=O)[C@H]([C@@H](C)O)NC(=O)[C@@H](N)CSSC[C@@H](C(=O)O)NC1=O` [CTT] (H-CTTHWGFTLC-OH; disulfide 1-10; N-terminus and C-terminus assumed) as the compound, how does the “Tumor progression in vivo” value [1] read?
The value was “inhibited”.

And the “Enhancement of uptake of liposome-encapsulated rhodamine vs liposomes lacking peptide” value ([2]; U937, fluorescence plate-reader)?
The value was 3.6 fold.

What about the “Rhodamine intake, fluorescence microscopy” value ([2]; U937, liposomes with vs without CTT) of the same compound?
The value was “enhanced”.

What about the “Uptake of free rhodamine B” value ([2]; no liposomes) of the same compound?
The value was “did not promote”.

What about the “Selective inhibition of MMP family members” value [3] of the same compound?
Its value is “selectively inhibit the activity of MMP-2 and MMP-9”.

What about the “Initial monolayer packing pressure above which membrane penetration was abolished” value [4] of the same compound?
The value was 38 mN/m.

What about the “I350/I330 of Trp residue” value ([5]; in PBS) of the same compound?
Its value is 1.4.

And the “I350/I330 of Trp residue” value ([5]; presence of LUVs (0.5 mM total phospholipid))?
Its value is 1.00.

What about the “Lipid mixing / vesicle fusion (NBD-PE emission)” value [6] of the same compound?
Its value is “lack of lipid mixing”.

Reference: patent publication US20050271588A1, “Liposome targeting of matrix metalloproteinase inhibitors” (priority 2001, published 2005)
